From US20240368557A1, “STEM CELL-DERIVED ALPHA CELLS AND METHODS OF GENERATING SAME” (President and Fellows of Harvard College, priority 2018, published 2024)

What was measured:
Format in all cases: cell-based, human
SC-alpha cells = assay: glucagon secretion of SC-alpha cells with glucagon secretion modulators
Excerpt: To evaluate the ability of SC-alpha cells to respond to physiological conditions, we screened a number of glucagon secretion modulators and evaluated the effect on glucagon secretion. In the human islet, alpha cells secrete glucagon in response to low glucose conditions. […] Additionally, alpha cells respond to paracrine inhibitory signaling from delta cells through the hormone somatostatin resulting in suppressed glucagon secretion.
A number of pharmacological compounds have been developed to modulate glucagon secretion. We evaluated the effect of these compounds on SC-alpha cells to determine how well SC-alpha cells recapitulate the functional response of alpha cells (FIG. 4C).
Human islets or differentiated polyhormonal or SC-alpha cells were washed twice in low-glucose (2.8 mM) Krebs Ringer (KRB) buffer (128 mM NaCl, 5 mM KCl, 2.7 mM CaCl2, 1.2 mM MgSO4, 1 mM Na2HPO4, 1.2 mM KH2PO4, 5 mM NaHCO3, 10 mM HEPES, 0.1% BSA in milliQ). Cells were then loaded into 24 well transwell inserts and fasted in low glucose KRB for 1 hour at 37° C. Clusters were washed once in low glucose KRB and then incubated in low glucose KRB for 1 hour at 37° C. […] Cells were then dispersed and counted using a vicell automated cell counter. Collected supernatants were analyzed by ELISA for Insulin and/or glucagon and normalized to cell number.

[1] = tested on: HUES8 cells differentiated to SC-beta cells; assay: PdbU treatment of stage 6 SC-beta cell differentiation, flow cytometry
Excerpt: FIG. 7 provides flow cytometry of HUES8 cells differentiated to SC-beta cells and treated with PdbU for 14 days during stage 6.
Differentiation of hPSCs to beta cells results in a side population of polyhormonal cells. To this end we evaluated the effect of PKC activation on the differentiation of SC-beta cells. […] However, when treated with PdbU, the polyhormonal side population in the differentiation was reduced, and the percentage of monohormonal alpha cells was increased.
Cells were collected for flow cytometry analysis at various time points throughout the differentiation process. Cells were dispersed with TrypLE Express at 37° C. for 15 minutes after which trypsin was quenched with serum containing media (S1, S2, or S3). Cells were fixed in 4% PFA for 20 minutes and subsequently stored in PBS at 4° C. until staining. Staining was performed by first permeabilizing the cells in block solution (PBS+0.1% Triton X-100+5% donkey serum) for 40 minutes. Cells were then incubated with primary antibodies in block solution for 1 hour at RT, washed twice with PBST and incubated with secondary antibody in block solution for 1 hour at RT. Cells were then washed in three times and resuspended in PBST at a concentration of 1×10^6 cells/ml. Stained cells were analyzed using the Accuri C6 or Attune flow cytometers. Antibody concentrations used were as follows. Pro/insulin was assessed using an antibody that recognizes the c-peptide epitope from the Iowa Hybridoma Bank and used at a concentration of 1:300. Pro/glucagon was assessed using an antibody that recognizes the GLP-2 (Santa Cruz) or glucagon (Manufacturer) epitopes and used at a concentration of 1:300. Secondary antibodies used were a donkey-anti-goat-Alexaflour 488 (1:500) and a donkey-anti-rat-Alexaflour 647 (1:500).

[2] = tested on: HUES8-derived polyhormonal cells; assay: small-molecule phenotypic screen on polyhormonal cells (high-content imaging of pro/insulin and pro/glucagon); conditions: 96 hours incubation, quintuplicate
Method: (§1) Toward this goal, we initiated a small-molecule phenotypic screen to identify compounds that either promote alpha cell identity or conversely reduce proinsulin expression in vitro. Briefly, HUES8 cells were differentiated using our polyhormonal optimized protocol. Cells were dispersed and arrayed into a 384-well plate and compounds were introduced. HUES8-derived polyhormonal cells were co-incubated with a compound library for 96 hours, after which the cells were fixed and stained for pro/glucagon and pro/insulin. High-content imaging was used to quantify the percentage of cells expressing each hormone individually and the percentage of polyhormonal cells as marked by the co-expression of both hormones (FIGS. 3A-3B). In total 43 compounds were evaluated in quintuplicate. […] To confirm that the effects of this compound were not unique to the assay format, PdbU was evaluated in the final stage of the directed differentiation protocol.
Polyhormonal cells were dispersed using TrypLE Express for 15 minutes and quenched using S3 media. The resulting single cell suspension was arrayed into a 384 well plate which had been coated with Matrigel with 50,000 cells in each well. Compounds were introduced each to 5 separate wells and incubated for 96 hours after which cells were fixed with 4% PFA and stained for pro/insulin and pro/glucagon as described above with the following modifications. Antibody incubations and washes were performed using a BioTek EL405 Plate washer and dispenser. Cells were imaged with the cellomics array scan high content imaging system. Nine fields of view were captured for each well and analyzed for cell number and fluorescent content. The percentage of cells expressing pro/insulin and pro/glucagon was calculated for each well.

polyhormonal cells = assay: PKC activator treatment in final stage (stage 6) of directed differentiation, flow cytometry
Method: as §1
To test the specificity of PKC activation on the results shown above, we compiled a small library of known PKC activators and evaluated their ability to similarly decrease insulin expression in polyhormonal cells. […] To that end, we treated polyhormonal cells for 28 days with either vehicle or each PKC activator and assessed the percentage of monohormonal expressing alpha cells at the end of the 28-day treatment. […]

[3] = stage 6 SC-beta cells treated with PdbU

Row | SMILES | glucagon secretion from SC-alpha cells (SC-alpha cells) | percentage of Nkx6.1/C-peptide co-positive cells (number of beta cells) ([1]; PdbU for 14 days during stage 6) | percentage of monohormonal alpha cells in the SC-beta differentiation [1, 3] | polyhormonal side population in the SC-beta differentiation [1, 3] | percentage of cells expressing pro/glucagon [2] | percentage of polyhormonal cells (cells expressing both pro/insulin and pro/glucagon) [2] | percentage of pro/insulin expressing cells [2] | population of polyhormonal cells induced to reduce insulin expression (polyhormonal cells; 28 day treatment, stage 6, vs. 23±3% (comparison)) [%] | percentage of monohormonal SC-alpha cells after withdrawal of PdbU (polyhormonal cells; cultured in the absence of PdbU for 7 days)
1 | COc1ccccc1OCC(O)CN1CCN(CC(=O)Nc2c(C)cccc2C)CC1 (stereo not drawn) [ranolazine] | increase glucagon secretion |  |  |  |  |  |  |  | 
2 | CCCC(=O)O[C@@H]1[C@@H](C)[C@@]2(O)[C@@H](C=C(CO)C[C@]3(O)C(=O)C(C)=C[C@@H]23)[C@@H]2C(C)(C)[C@]12OC(=O)CCC [PdbU] |  | did not have a significant effect | increased | reduced | increase | significantly reduced | significantly decrease | 46±4 | did not significantly reduce
